Experimental data from ChEMBL document CHEMBL4354859, “Dimerization of α-Conotoxins as a Strategy to Enhance the Inhibition of the Human α7 and α9α10 Nicotinic Acetylcholine Receptors” (J Med Chem, 2020).
Active and inactive are the calls of the source. The rule behind the calls is not given here. Numbered stars: 1 amine (or outer) side, 2 acyl side, 3 side chain; on linkers, the order of the positions; unused ones are H or OH. Bridge positions count the residues as written; N and C are the ends. Square brackets hold non-standard residues; d marks the D form. Peptide text beside a SMILES is read from it. I, II: the chains in the order shown. ξ: configuration not given here. X1 = O=C(CCOCCOCCOCCOCCOCCOCCOCCOCCOCCn1cc(CCCC(=O)[*:2])nn1)[*:1]; ξK = NCCCCC(N)C(=O)O

Legend:
[1] = target: T1, Neuronal acetylcholine receptor subunit alpha-7 (Homo sapiens, UniProt P36544); test: Inhibition of human alpha7 nAChR expressed in Xenopus laevis oocytes assessed as inhibition of ACh-evoked currents by two-electrode voltage clamp assay; format: cell-based
[2] = target: T2, Neuronal acetylcholine receptor; alpha9/alpha10 (Homo sapiens) (UniProt Q9UGM1+Q9GZZ6); test: Inhibition of human alpha9alpha10 nAChR expressed in Xenopus laevis oocytes assessed as inhibition of ACh-evoked currents at 100 nM by two-electrode voltage clamp assay; format: cell-based
[3] = target: T2, Neuronal acetylcholine receptor; alpha9/alpha10 (Homo sapiens); test: Reversible inhibition of human alpha9alpha10 nAChR expressed in Xenopus laevis oocytes assessed as inhibition of ACh-evoked currents by two-electrode voltage clamp assay; format: cell-based
[4] = target: T3, Neuronal acetylcholine receptor; alpha3/beta2 (Homo sapiens) (UniProt P17787+P32297); test: Inhibition of human alpha3beta2 nAChR expressed in Xenopus laevis oocytes assessed as inhibition of ACh-evoked currents at 1 uM by two-electrode voltage clamp assay relative to control; format: cell-based
[5] = target: T2, Neuronal acetylcholine receptor; alpha9/alpha10 (Homo sapiens); test: Inhibition of human alpha9alpha10 nAChR expressed in Xenopus laevis oocytes assessed as inhibition of ACh-evoked currents at 1 uM by two-electrode voltage clamp assay; format: cell-based
[6] = target: T4, Neuronal acetylcholine receptor; alpha3/beta4 (Homo sapiens) (UniProt P30926+P32297); test: Inhibition of human alpha3beta4 nAChR expressed in Xenopus laevis oocytes assessed as inhibition of ACh-evoked currents at 100 nM by two-electrode voltage clamp assay; format: cell-based
[7] = target: T1, Neuronal acetylcholine receptor subunit alpha-7; test: Reversible inhibition of human alpha7 nAChR expressed in Xenopus laevis oocytes assessed as inhibition of ACh-evoked currents by two-electrode voltage clamp assay; format: cell-based
[8] = target: T5, Neuronal acetylcholine receptor; alpha4/beta2 (Homo sapiens) (UniProt P17787+P43681); test: Inhibition of human alpha4beta2 nAChR expressed in Xenopus laevis oocytes assessed as inhibition of ACh-evoked currents at 1 uM by two-electrode voltage clamp assay; format: cell-based
[9] = target: T6, Neuronal acetylcholine receptor; alpha9/alpha10 (Homo sapiens, UniProt Q9GZZ6+Q9UGM1); test: Inhibition of human alpha9alpha10 nAChR expressed in Xenopus laevis oocytes assessed as inhibition of ACh-evoked currents by two-electrode voltage clamp assay; format: cell-based
[10] = target: T3, Neuronal acetylcholine receptor; alpha3/beta2 (Homo sapiens); test: Inhibition of human alpha3beta2 nAChR expressed in Xenopus laevis oocytes assessed as inhibition of ACh-evoked currents at 100 nM by two-electrode voltage clamp assay; format: cell-based
[11] = target: T4, Neuronal acetylcholine receptor; alpha3/beta4 (Homo sapiens); test: Inhibition of human alpha3beta4 nAChR expressed in Xenopus laevis oocytes assessed as inhibition of ACh-evoked currents at 1 uM by two-electrode voltage clamp assay; format: cell-based
[12] = target: T6, Neuronal acetylcholine receptor; alpha9/alpha10; test: Inhibition of human alpha9alpha10 nAChR expressed in Xenopus laevis oocytes expressing alpha9:alpha10 mRNA injection ratio of 1:3 assessed as inhibition of ACh-evoked currents by two-electrode voltage clamp assay; format: cell-based
[13] = target: T5, Neuronal acetylcholine receptor; alpha4/beta2 (Homo sapiens); test: Inhibition of human alpha4beta2 nAChR expressed in Xenopus laevis oocytes assessed as inhibition of ACh-evoked currents at 100 nM by two-electrode voltage clamp assay; format: cell-based
[14] = target: Neuronal acetylcholine receptor subunit alpha-7 (Rattus norvegicus, UniProt Q05941); test: Inhibition of rat alpha7 nAChR
[15] = target: T1, Neuronal acetylcholine receptor subunit alpha-7; test: Inhibition of human alpha7 nAChR expressed in Xenopus laevis oocytes assessed as inhibition of ACh-evoked currents at 1 uM by two-electrode voltage clamp assay relative to control; format: cell-based

T6 sequence (Q9UGM1 whole entry): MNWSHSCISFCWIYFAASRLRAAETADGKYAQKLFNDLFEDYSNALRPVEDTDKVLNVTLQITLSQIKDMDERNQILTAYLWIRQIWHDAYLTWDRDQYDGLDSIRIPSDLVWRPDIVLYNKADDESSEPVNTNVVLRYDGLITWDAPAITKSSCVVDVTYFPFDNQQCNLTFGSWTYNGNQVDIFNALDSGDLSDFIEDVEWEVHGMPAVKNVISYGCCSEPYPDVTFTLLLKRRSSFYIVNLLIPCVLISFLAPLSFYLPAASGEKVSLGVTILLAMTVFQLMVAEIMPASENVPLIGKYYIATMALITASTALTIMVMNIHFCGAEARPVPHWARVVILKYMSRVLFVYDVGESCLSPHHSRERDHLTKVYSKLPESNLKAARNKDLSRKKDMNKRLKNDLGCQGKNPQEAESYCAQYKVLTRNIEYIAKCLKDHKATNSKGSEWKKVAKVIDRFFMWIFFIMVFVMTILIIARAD
T6 sequence (Q9GZZ6 whole entry): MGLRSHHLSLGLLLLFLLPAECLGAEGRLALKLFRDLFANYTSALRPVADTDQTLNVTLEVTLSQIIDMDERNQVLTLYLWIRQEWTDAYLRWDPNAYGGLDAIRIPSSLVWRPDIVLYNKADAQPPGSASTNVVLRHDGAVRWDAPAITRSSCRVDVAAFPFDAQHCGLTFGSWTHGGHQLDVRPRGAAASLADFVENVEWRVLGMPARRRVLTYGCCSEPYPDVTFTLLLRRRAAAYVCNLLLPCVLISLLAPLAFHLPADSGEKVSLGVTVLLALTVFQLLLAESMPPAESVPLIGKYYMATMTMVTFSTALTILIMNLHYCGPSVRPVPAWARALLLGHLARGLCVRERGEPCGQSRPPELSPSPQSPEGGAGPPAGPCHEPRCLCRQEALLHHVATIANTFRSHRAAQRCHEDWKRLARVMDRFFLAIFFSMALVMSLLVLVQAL
T1 sequence (P36544 whole entry): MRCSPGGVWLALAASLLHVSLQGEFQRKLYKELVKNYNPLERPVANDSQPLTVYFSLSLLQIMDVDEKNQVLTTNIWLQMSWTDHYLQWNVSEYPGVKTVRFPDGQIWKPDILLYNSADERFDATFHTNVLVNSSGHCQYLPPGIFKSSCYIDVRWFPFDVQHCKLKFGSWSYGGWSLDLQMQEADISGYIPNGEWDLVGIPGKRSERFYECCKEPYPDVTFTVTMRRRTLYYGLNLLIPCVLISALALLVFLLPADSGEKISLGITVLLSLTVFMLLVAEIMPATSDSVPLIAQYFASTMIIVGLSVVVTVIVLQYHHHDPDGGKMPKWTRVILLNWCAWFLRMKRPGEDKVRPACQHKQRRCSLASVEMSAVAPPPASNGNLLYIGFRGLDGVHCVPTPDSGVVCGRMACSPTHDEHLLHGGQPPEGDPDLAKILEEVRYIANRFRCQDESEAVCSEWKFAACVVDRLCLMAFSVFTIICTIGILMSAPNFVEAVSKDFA
Neuronal acetylcholine receptor subunit alpha-7 (Rattus norvegicus, UniProt Q05941), sequence (Q05941 whole entry): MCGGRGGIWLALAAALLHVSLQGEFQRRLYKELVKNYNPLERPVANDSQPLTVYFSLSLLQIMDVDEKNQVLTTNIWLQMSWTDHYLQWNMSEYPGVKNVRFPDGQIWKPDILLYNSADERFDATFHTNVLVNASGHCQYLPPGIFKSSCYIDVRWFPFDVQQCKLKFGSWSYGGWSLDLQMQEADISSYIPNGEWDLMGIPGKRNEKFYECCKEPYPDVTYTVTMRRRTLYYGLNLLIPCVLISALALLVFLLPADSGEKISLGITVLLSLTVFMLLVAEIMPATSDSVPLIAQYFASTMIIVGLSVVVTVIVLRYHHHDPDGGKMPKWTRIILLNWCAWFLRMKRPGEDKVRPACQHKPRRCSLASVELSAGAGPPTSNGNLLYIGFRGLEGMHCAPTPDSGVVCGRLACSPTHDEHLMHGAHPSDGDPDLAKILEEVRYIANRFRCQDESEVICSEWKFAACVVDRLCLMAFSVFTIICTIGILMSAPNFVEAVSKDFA

Row | SMILES | IC50 [1] [nM] | inhibition [3] | inhibition [7] | IC50 [9] [nM] | further results
1 | CC(C)C[C@@H]1NC(=O)[C@H](CCC(=O)O)NC(=O)[C@@H]2CCCN2C(=O)[C@H](Cc2cnc[nH]2)NC(=O)[C@H](CC(N)=O)NC(=O)[C@H](C(C)C)NC(=O)[C@H](CO)NC(=O)[C@@H]2CSSC[C@H](NC(=O)CN)C(=O)N[C@@H](CSSC[C@@H](C(N)=O)NC1=O)C(=O)N[C@@H](CO)C(=O)N[C@@H](Cc1cnc[nH]1)C(=O)N1CCC[C@H]1C(=O)N[C@@H](C)C(=O)N2 (H-GCCSHPACSVNHPELC-NH2; disulfide 2-8, 3-16) | > 10000 |  |  |  | 
2 | N=C(N)NCCC[C@H](NC(=O)CNC(=O)C(CCCCNC(=O)CCCc1cn(CCOCCOCCOCCOCCOCCOCCOCCOCCOCCC(=O)NCC(=O)N[C@H]2CSSC[C@@H]3NC(=O)[C@H](CCCNC(=N)N)NC(=O)[C@@H]4CCCN4C(=O)[C@H](CC(=O)O)NC(=O)[C@H](CO)NC(=O)[C@H](CSSC[C@@H](C(N)=O)NC(=O)[C@H](CCCNC(=N)N)NC(=O)[C@H](Cc4ccc(O)cc4)NC(=O)[C@H](CCCNC(=N)N)NC3=O)NC2=O)nn1)NC(=O)CCCc1cn(CCOCCOCCOCCOCCOCCOCCOCCOCCOCCC(=O)NCC(=O)N[C@H]2CSSC[C@@H]3NC(=O)[C@H](CCCNC(=N)N)NC(=O)[C@@H]4CCCN4C(=O)[C@H](CC(=O)O)NC(=O)[C@H](CO)NC(=O)[C@H](CSSC[C@@H](C(N)=O)NC(=O)[C@H](CCCNC(=N)N)NC(=O)[C@H](Cc4ccc(O)cc4)NC(=O)[C@H](CCCNC(=N)N)NC3=O)NC2=O)nn1)C(=O)N[C@@H](CCCNC(=N)N)C(=O)N[C@@H](CCCNC(=N)N)C(=O)N[C@@H](CCCNC(=N)N)C(=O)NCC(N)=O (some centres undefined) (I: GCCSDPRCRYRC-NH2 / II: GCCSDPRCRYRC-NH2 / III: [ξK]GRRRRG-NH2; disulfide I:2-I:8, I:3-I:12, II:2-II:8, II:3-II:12; linker I:N-III:1, II:N-III:N via X1) | 63.1 | Dose-dependent effect | Dose-dependent effect | 38.5 | inhibition [2]: Active; inhibition [4]: 60%; inhibition [5]: Active; inhibition [6]: inactive; inhibition [8]: inactive; inhibition [10]: Active; inhibition [11]: inactive; IC50 [12]: 117 nM; inhibition [13]: inactive
3 | C[C@@H]1NC(=O)[C@@H]2CSSC[C@H](NC(=O)CN)C(=O)N[C@@H](CSSC[C@@H](C(N)=O)NC(=O)[C@H](CCCNC(=N)N)NC(=O)[C@H](Cc3c[nH]c4ccccc34)NC1=O)C(=O)N[C@@H](CO)C(=O)N[C@@H](CC(=O)O)C(=O)N1CCC[C@H]1C(=O)N[C@@H](CCCNC(=N)N)C(=O)N2 | 1000 |  |  |  | 
4 | CC[C@H](C)[C@@H]1NC(=O)[C@H](CCC(=O)O)NC(=O)[C@@H]2CCCN2C(=O)[C@H](Cc2cnc[nH]2)NC(=O)[C@H](CC(=O)O)NC(=O)[C@H](Cc2ccc(O)cc2)NC(=O)[C@H](CC(N)=O)NC(=O)[C@@H]2CSSC[C@H](NC(=O)CN)C(=O)N[C@@H](CSSC[C@@H](C(N)=O)NC1=O)C(=O)N[C@@H](CO)C(=O)N[C@@H](CC(=O)O)C(=O)N1CCC[C@H]1C(=O)N[C@@H](CCCNC(=N)N)C(=O)N2 | > 10000 |  |  | 1000 | 
5 | N=C(N)NCCC[C@H](NC(=O)[C@@H]1CSSC[C@@H]2NC(=O)[C@@H](NC(=O)CN)CSSC[C@H](NC(=O)[C@H](CCCNC(=N)N)NC(=O)[C@@H]3CCCN3C(=O)[C@H](CC(=O)O)NC(=O)[C@H](CO)NC2=O)C(=O)N[C@@H](CCCNC(=N)N)C(=O)N[C@@H](Cc2ccc(O)cc2)C(=O)N[C@@H](CCCNC(=N)N)C(=O)N1)C(=O)O |  |  |  |  | IC50 [14]: 4660 nM
6 | N=C(N)NCCC[C@@H]1NC(=O)[C@H](Cc2ccc(O)cc2)NC(=O)[C@H](CCCNC(=N)N)NC(=O)[C@@H]2CSSC[C@H](NC(=O)CN)C(=O)N[C@@H](CSSC[C@@H](C(N)=O)NC1=O)C(=O)N[C@@H](CO)C(=O)N[C@@H](CC(=O)O)C(=O)N1CCC[C@H]1C(=O)N[C@@H](CCCNC(=N)N)C(=O)N2 (H-GCCSDPRCRYRC-NH2; disulfide 2-8, 3-12) | > 1000 |  |  | 249 | inhibition [15]: 20%
7 | CC[C@H](C)[C@@H]1NC(=O)[C@H](CCC(=O)O)NC(=O)[C@@H]2CCCN2C(=O)[C@H](Cc2cnc[nH]2)NC(=O)[C@H](CC(=O)O)NC(=O)[C@H](Cc2ccc(O)cc2)NC(=O)[C@H](CC(N)=O)NC(=O)[C@@H]2CSSC[C@H](NC(=O)CNC(=O)CCOCCOCCOCCOCCOCCOCCOCCOCCOCCn3cc(CCCC(=O)NCCCCC(NC(=O)CCCc4cn(CCOCCOCCOCCOCCOCCOCCOCCOCCOCCC(=O)NCC(=O)N[C@H]5CSSC[C@@H]6NC(=O)[C@H](CCCNC(=N)N)NC(=O)[C@@H]7CCCN7C(=O)[C@H](CC(=O)O)NC(=O)[C@H](CO)NC(=O)[C@H](CSSC[C@@H](C(N)=O)NC(=O)[C@H]([C@@H](C)CC)NC(=O)[C@H](CCC(=O)O)NC(=O)[C@@H]7CCCN7C(=O)[C@H](Cc7cnc[nH]7)NC(=O)[C@H](CC(=O)O)NC(=O)[C@H](Cc7ccc(O)cc7)NC(=O)[C@H](CC(N)=O)NC6=O)NC5=O)nn4)C(=O)NCC(=O)N[C@@H](CCCNC(=N)N)C(=O)N[C@@H](CCCNC(=N)N)C(=O)N[C@@H](CCCNC(=N)N)C(=O)N[C@@H](CCCNC(=N)N)C(=O)NCC(N)=O)nn3)C(=O)N[C@@H](CSSC[C@@H](C(N)=O)NC1=O)C(=O)N[C@@H](CO)C(=O)N[C@@H](CC(=O)O)C(=O)N1CCC[C@H]1C(=O)N[C@@H](CCCNC(=N)N)C(=O)N2 (some centres undefined) | > 10000 | Dose-dependent effect | Dose-dependent effect | 266 | 
8 | CC(C)C[C@@H]1NC(=O)[C@H](CCC(=O)O)NC(=O)[C@@H]2CCCN2C(=O)[C@H](Cc2cnc[nH]2)NC(=O)[C@H](CC(N)=O)NC(=O)[C@H](C(C)C)NC(=O)[C@H](CO)NC(=O)[C@@H]2CSSC[C@H](NC(=O)CNC(=O)CCOCCOCCOCCOCCOCCOCCOCCOCCOCCn3cc(CCCC(=O)NCCCCC(NC(=O)CCCc4cn(CCOCCOCCOCCOCCOCCOCCOCCOCCOCCC(=O)NCC(=O)N[C@H]5CSSC[C@@H]6NC(=O)[C@H](C)NC(=O)[C@@H]7CCCN7C(=O)[C@H](Cc7cnc[nH]7)NC(=O)[C@H](CO)NC(=O)[C@H](CSSC[C@@H](C(N)=O)NC(=O)[C@H](CC(C)C)NC(=O)[C@H](CCC(=O)O)NC(=O)[C@@H]7CCCN7C(=O)[C@H](Cc7cnc[nH]7)NC(=O)[C@H](CC(N)=O)NC(=O)[C@H](C(C)C)NC(=O)[C@H](CO)NC6=O)NC5=O)nn4)C(=O)NCC(=O)N[C@@H](CCCNC(=N)N)C(=O)N[C@@H](CCCNC(=N)N)C(=O)N[C@@H](CCCNC(=N)N)C(=O)N[C@@H](CCCNC(=N)N)C(=O)NCC(N)=O)nn3)C(=O)N[C@@H](CSSC[C@@H](C(N)=O)NC1=O)C(=O)N[C@@H](CO)C(=O)N[C@@H](Cc1cnc[nH]1)C(=O)N1CCC[C@H]1C(=O)N[C@@H](C)C(=O)N2 (some centres undefined) (I: GCCSHPACSVNHPELC-NH2 / II: GCCSHPACSVNHPELC-NH2 / III: [ξK]GRRRRG-NH2; disulfide I:2-I:8, I:3-I:16, II:2-II:8, II:3-II:16; linker I:N-III:1, II:N-III:N via X1) | 354 | Dose-dependent effect | Dose-dependent effect | 1.9 | 
